# From US20110152340A1, “Methods for Identifying Subjects With an Increased Likelihood of Responding to DPP-IV Inhibitors” (BRISTOL-MYERS SQUIBB COMPANY, priority 2008, published 2011)
# What was measured:
# Assay type in all cases: in vivo, human
# [1] = Saxagliptin clinical trials: AUC glucose response by GRINL1A genotype
# Procedure: (§1) SNPs from the genome-wide SNP panel were tested for association with response to DPP-IV inhibitors by two analytical methodologies. In one method, SNPs were identified with significant differences in mean HBA1C response among individuals with different genotypes on treatment, taking into account covariates such as demographic differences with an analysis of covariance (ANCOVA) statistical model. SNPs with consistent in their effect on HBA1C in both trials were considered for further evaluation. In a second method, SNPs were examined for association with response cluster. SNPs consistently associated with response cluster in both trials were further evaluated for influence on fasting glycosylated hemoglobin or glucose levels using analysis of covariance.
# (§2) Sample: Subjects in BMS clinical trials, (Trial A and Trial B) receiving DPP-IV inhibitor (saxigliptin) therapy. All subjects have diabetes and the study group was mixed with respect to age, race and duration of diabetes. Measures: Single nucleotide polymorphisms (SNPs) in a genome-wide panel were genotyped on all subjects essentially as described in Example 1. […] The SNPs that were genotyped likely represent a sample of the polymorphic variation in each gene and are not exhaustive with regard to coverage of the total genetic variation that may be present in each gene. […] Statistical Analyses: Initial analysis to determine SNP association with cluster membership was performed using the genotypic test (2-degrees of freedom) implemented in the program PLINK (Purcell et al., 2007 Amer. Journ. Hum Genet. 81: 559-75. PLINK: a tool set for whole-genome association and population-based linkage analyses). […] Follow-up analysis was performed employing a statistical package, SPSS v.14 (SPSS Inc. Chicago, Ill.). […] SNPs that were associated with differential genotype response were identified by a significant difference in HBA1C response (P<=0.05) in two independent trials. Analysis was performed employing a statistical package, SAS v. […] Differences in means between clusters for HbA1c were evaluated using Kruskal-Wallis test.
# [2] = Saxagliptin clinical trials: fasting glucose response by GRINL1A genotype
# Procedure: as §1, §2
# [3] = Saxagliptin clinical trials (Trial A and Trial B): HbA1c response by SNP genotype
# Procedure: The association between the SNPs and the response to saxagliptin was evaluated in two ways. SNPs from the genome-wide SNP panel were tested for association with response to DPP-IV inhibitors by two analytical methodologies. In one method, SNPs were identified with significant differences in mean HBA1C response among individuals with different genotypes on treatment, taking into account covariates such as demographic differences with an analysis of covariance (ANCOVA) statistical model. SNPs with consistent in their effect on HBA1C in both trials were considered for further evaluation. In a second method, SNPs were examined for association with response cluster. SNPs consistently associated with response cluster in both trials were further evaluated for influence on fasting glycosylated hemoglobin or glucose levels using analysis of covariance. Sample: Subjects in BMS clinical trials, (Trial A and Trial B) receiving DPP-IV inhibitor ([…]) therapy. All subjects have diabetes and the study group was mixed with respect to age, race and duration of diabetes. Measures: Single nucleotide polymorphisms (SNPs) in a genome-wide panel were genotyped on all subjects essentially as described in Example 1. […] The SNPs that were genotyped likely represent a sample of the polymorphic variation in each gene and are not exhaustive with regard to coverage of the total genetic variation that may be present in each gene. The SNP for which a statistical association to DPP-IV inhibitor-dependent metabolic abnormalities was confirmed is provided in Table III. Statistical Analyses: Initial analysis to determine SNP association with cluster membership was performed using the genotypic test (2-degrees of freedom) implemented in the program PLINK (Purcell et al., 2007 Amer. Journ. Hum […]: a tool set for whole-genome association and population-based linkage analyses). […] Follow-up analysis was performed employing a statistical package, SPSS v.14 (SPSS Inc. Chicago, Ill.). Some SNP associations were also discovered or confirmed using an ANCOVA modeling approach as described below. SNPs that were associated with differential genotype response were identified by a significant difference in HBA1C response (P<=0.05) in two independent trials. Analysis was performed employing a statistical package, SAS v. 8.2 (SAS Institute Inc., Cary, N.C.). […] Baseline glycosylated hemoglobin (HbA1c) and change in HbA1c after twelve weeks (study A) or twenty-four weeks (study B) of DPP-IV inhibitor therapy for each individual were used in this analysis. […] This process was iteratively repeated until all individuals were clustered into groups, either non-responders (poor response to saxagliptin therapy) or super responders (response to saxagliptin therapy). The two-step clustering routine implemented in SPSS version 12 (Chicago, Ill., US) was used. Differences in means between clusters for HbA1c were evaluated using Kruskal-Wallis test. […] The ANCOVA model provides an estimate of mean final HbA1C after treatment for different genotypes, taking into account clinical and demographic information. […] The SNP genotype was included in the model and the difference in HbA1c was estimated between wildtype homozygous and heterozygous or rare homozygous individuals. SNPs that were associated with differential genotype response were identified by a significant (P<=0.05) difference (in the same direction) in HBA1C response between genotypes in two independent trials. Analysis was performed using contrast estimates with the GLM procedure in SAS v. 8.2 (SAS Institute Inc., Cary, N.C.).
compound,measurement,setting,value
"N#C[C@@H]1C[C@@H]2C[C@@H]2N1C(=O)[C@@H](N)C12CC3CC(CC(O)(C3)C1)C2 [saxagliptin, (1S,3S,55)-2-[(2S)-2-amino-2-(3-hydroxytricyclo[3.3.1.1^3,7]dec-1-yl)-1-oxoethyl]-2-azabicyclo[3.1.0]hexane-3-carbonitrile]",mean change in AUC Glucose levels,"[1]; FIG. 11, GRINL1A position 87,992, reference carriers vs SNP carriers",higher reduction in AUC Glucose levels
same,mean change in AUC glucose levels following saxagliptin treatment,[1]; GRINL1A variant SNP carriers,little change in the AUC glucose levels
same,mean change in AUC glucose levels following saxagliptin treatment,[1]; those homozygous for the GRINL1A reference allele,significant reduction in the AUC glucose levels
same,mean change in fasting glucose levels,"[2]; FIG. 10, GRINL1A position 87,992, reference carriers vs SNP carriers",higher reduction in mean fasting glucose levels
same,mean change in fasting glucose levels following saxagliptin treatment,"[2]; subjects homozygous for the reference allele (T/T) at position 87,992 of SEQ ID NO: 1 (GRINL1A), compared to carriers of the variant allele",significant reduction in the mean fasting glucose levels
same,mean change in fasting glucose levels following saxagliptin treatment,"[2]; variant SNP carriers (C/T or C/C) at position 87,992 of SEQ ID NO: 1 (GRINL1A), compared with matched placebo controls",little change in the fasting glucose levels
same,mean change in HbA1c levels,"[3]; FIG. 9, GRINL1A position 87,992, reference carriers vs SNP variant carriers",higher reduction in mean glycosylated hemoglobin
same,mean change in HbA1c levels,"[3]; FIG. 12, HSD11B1 position 34,403, reference carriers vs SNP carriers",higher reduction in mean glycosylated hemoglobin
same,mean change in HbA1c levels,"[3]; FIG. 13, CHST10 position 24,707, reference carriers vs SNP carriers",higher reduction in mean glycosylated hemoglobin
same,mean change in HbA1c levels,"[3]; FIG. 14, CHST10 position 34,078, reference carriers vs SNP carriers",higher reduction in mean glycosylated hemoglobin
same,mean change in HbA1c levels,"[3]; FIG. 15, CHST10 position 35,799, reference carriers vs SNP carriers",higher reduction in mean glycosylated hemoglobin
same,mean change in HbA1c levels,"[3]; FIG. 16, CHST10 position 38,709, reference carriers vs SNP carriers",higher reduction in mean glycosylated hemoglobin
same,mean change in HbA1c levels,"[3]; FIG. 17, CHST10 position 38,947, reference carriers vs SNP carriers",higher reduction in mean glycosylated hemoglobin
same,mean change in HbA1c levels,"[3]; FIG. 18, CHST10 position 41,180, reference carriers vs SNP carriers",higher reduction in mean glycosylated hemoglobin
same,mean change in HbA1c levels following saxagliptin treatment,"[3]; Trial A and Trial B, variant SNP carriers at positions 24,707, 34,078, 35,799, 38,709, 38,947 or 41,180 of SEQ ID NO: 5 (CHST10), compared with reference allele homozygotes",little change in HbA1c levels
same,mean HbA1C in response to therapy,"[3]; homozygous reference allele (T/T) vs heterozygous (T/C) individuals at position 26,472 of SEQ ID NO: 63 or 64 (TEKT5), both trials",lower mean HbA1C in response to therapy than heterozygous individuals
same,mean change in HbA1c levels following saxagliptin treatment,"[3]; reference allele homozygotes at position 34,403 of SEQ ID NO: 3 or 4 (HSD11B1), compared to carriers of the variant allele",greaterreduction in mean HbA1c levels
same,mean change in HbA1c levels following saxagliptin treatment,"[3]; subjects homozygous for the reference allele (T/T) at position 87,992 of SEQ ID NO: 1 or 2 (GRINL1A)",significant reduction in mean HbA1c levels
same,mean change in HbA1c levels following saxagliptin treatment,"[3]; variant SNP carriers (C/T or C/C) at position 87,992 of SEQ ID NO: 1 or 2 (GRINL1A)",little change in HbA1c levels
same,mean change in HbA1c levels following saxagliptin treatment,"[3]; variant SNP carriers at position 34,403 of SEQ ID NO: 3 or 4 (HSD11B1)",little change in HbA1c levels
